From patent US20240287054A1, “COMPOUNDS THAT BIND NON-CANONICAL G-QUADRUPLEX STRUCTURES AND METHODS OF MAKING AND USING THE SAME” (The U.S.A., as Represented by the Secretary, Department of …, priority 2021, published 2024)
Blank lines part the entries; values can stand above or below the compound they belong to.

Legend:
MYCN G4 DNA = assay: SPR competitive binding assay on MYCN G4; design: species or system human
Description: Based on this unexpected observation, and without being bound to a single theory, it currently is believed that the two compounds might bind to MYCN G4 on different sites. To investigate, a competitive assay on SPR was performed by injecting the compounds step-wise in a designated order or injecting a mixture (Brooks et al., Drug Discovery Today 2014, 19:1040-1044; Spurny et al., PNAS 112:E2543-2552). […] Next, TMPyP4, a classical stacking G4-binder (Seenisamy, JACS 2004, 126:8702-8709), was also tested together with MY-1. […] In addition, a CD melting assay was also performed using either MY-1 or a mixture of two hits (1 and MY-1).

dsDNA = assay: SPR binding to dsDNA; settings: up to 5 μM compound injection
[1] = test system: 12 different G4 oligos as well as non-G4 oligos (dsDNA and ssDNA); assay: Small-scale DNA G4 microarray binding selectivity; settings: B33 at 2.5 μM
Description: In this example, a small-scale DNA G4 microarray containing 12 different G4 oligos as well as non-G4 oligos (dsDNA and ssDNA) was fabricated and tested (Table 4). To start with, a SA-coated glass surface was prepared. An amino-functionalized glass slide was firstly modified with a solution of N, N′-disuccinimidyl carbonate (DSC, 1.0 M) and N, N-diisopropylethylamine (DIPEA, 1.0 M) in DMF overnight at room temperature. After being washed successively with EtOH, Milli-Q water (5 min each) and dried with N2 gas, the slide was incubated with 1 mg/mL of SA solution for 12 h (overnight) in a 4° C. fridge, followed by blocking the surface with EA buffer for 30 minutes. Then, the slide was rinsed with PBS buffer and Milli-Q water, and dried b centrifugation (1,700 g, 2 min).
In parallel, biotin-labeled DNA/RNA oligos were prepared in annealing buffer resulting in 5 μM stock solutions, followed by annealing (according to above methods). Then all the oligo solutions were transferred into a 384-well plate. Next, the microarray printing was conducted by a robotic arrayer (Nanoprint, Arrayit, USA) with a humidity of 60%. After the microarray was fabricated, the slide was placed in a slide box with a piece of wet Kimwipe tissue and incubated at 4° C. for 2 h.
To incubate with the fluorescent compounds (compound B33, thiazole orange (“TO”), and amsacrine), the slide was thoroughly rinsed with PBST, PBS, and water to remove the unbounded oligos. Then, the slide was dried by centrifugation (1,700 g, 2 min) and quickly assembled with microarray gaskets (Agilent, USA), followed by loading the compound solutions. After 1 h incubation, the slide was washed and dried with the above-mentioned method. Finally, the microarray slide was imaged by a fluorescence scanner (Mapix) using green channel and the fluorescence intensities were quantified.

MANGO II RNA G4 = assay: SPR binding to MANGO II RNA G4; settings: duplex-containing RNA G4
NBEB cells [2] = assay: Incucyte live cell imaging of cell confluence; assay type: cell-based; settings: 4-day measurement after single treatment, 0-45 μM
Description: Cell lines and cell culture. The neuroblastoma cell line NBEB (Single Copy MYCN) cells were used to evaluate the efficacy of the MYCN/MYCNOs G-quadruplex binding molecules. NBEB came from stocks in Pediatric Oncology Branch, National Cancer Institute, National Institutes of Health, Bethesda, MD and have been […]. Cells were cultured in RPMI-1640, supplemented with 10% FBS (Atlanta Biologicals, Atlanta), 2 mM glutamine (Life Technologies, New York), and antibiotics (penicillin 100 μg/mL, streptomycin 100 μg/mL; Life Technologies, New York) at 37° C. in a 5% CO2 incubator.
To examine the effects of G4-binding compounds on NBEB cells, live-cell imaging was performed using an Incucyte interface (described below). […] To examine the time-dependent decrease in MYCNOs expression, cells were treated with 22.5 μM and 45 μM MY-8 and analyzed at various times (0, 4, 24, 48, 72 and 96 h). To validate cell viability, a Trypan Blue exclusion test was performed following treatment at 48 h and 96 h post treatment and the proportion of live versus dead cells was calculated using a hemocytometer.
Incucyte live cell imaging system. […] Incucyte measured cell confluence from pre-defined processing definitions for NBEB NB cells. […]

NBEB cells [3] = assay: MTS cell survival assay; assay type: cell-based; settings: up to 45 μM
Description: (§1) To examine the effects of G4-binding compounds on NBEB cells, live-cell imaging was performed using an Incucyte interface (described below). NBEB (5K/well), cells were seeded into 96-well plates in triplicate, treated with compound MY-8 at various concentrations (0-45 μM), and cultured until control wells reached confluence. For RT-qPCR and western blotting, NBEB (300K) cells were treated with MY-8 in 6-well dish for 48 h. To examine the time-dependent decrease in MYCNOs expression, cells were treated with 22.5 μM and 45 μM MY-8 and analyzed at various times (0, 4, 24, 48, 72 and 96 h). To validate cell viability, a Trypan Blue exclusion test was performed following treatment at 48 h and 96 h post treatment and the proportion of live versus dead cells was calculated using a hemocytometer.
Cell survival. Following live cell image analysis, a 3-(4, 5-dimethylthiazol-2-yl)-5-(3-carboxymethoxyphenyl)-2-(4-sulfophenyl)-2H-tetrazolium inner salt assay was performed to examine cell survival. (MTS; inner salt assay; Promega, America). Absorbance was measured with a microplate reader (BIO-RAD, America) at 490 nm wavelength. To calculate the proportion of viable cells, MY-8 treated cells were divided by the control samples from each group.

MYCN mRNA = assay: qRT-PCR of MYCN mRNA in NBEB cells; assay type: cell-based; settings: NBEB cells, 24, 36, 48 h, higher concentrations
Description: as §1
(§2) Quantitative RT-PCR. Total RNA was extracted from NBEB cells according to manufacturer's instructions (RNeasy Plus Mini Extraction kit (#74134) (Qiagen, CA). RNA (1 μg) was reverse transcribed into cDNA using the cDNA synthesis High-Capacity RNA-to-cDNA™ Kit. Quantitative PCR was performed using Fast SYBR™ Green Master Mix according to the manufacturer's protocol. Beta-actin was used as a housekeeping gene. Relative expression was calculated using the 2(−ΔCt) method. The qPCR primer sequences can be found in supplementary materials.

[4] = test system: MYCNOS001 and MYCNOS002 transcripts; assay: qRT-PCR of MYCNOS transcripts in NBEB cells; assay type: cell-based
Description: as §1, with “For RT-qPCR and western blotting, NBEB (300K) cells were treated with MY-8 in 6-well dish for 48 h. To examine the time-dependent decrease in MYCNOs expression, cells were treated with 22.5 μM and 45 μM MY-8 and analyzed at various times (0, 4, 24, 48, 72 and 96 h).” left out
as §2

[5] = NBEB cells, 24, 36, 48 h, higher concentrations

binding level of MY-1 after injection of 1 (MYCN G4 DNA; 100 μM of 1 followed by 100 μM of MY-1, also 500 μM of 1): not significantly changed
SPR binding signal on addition of MY-1 to TMPyP4 solution (MYCN G4 DNA; MY-1 100 μM and 250 μM in TMPyP4 solution): increase of SPR binding signals
SMILES: COc1ccc(-c2noc(-c3ccc(NCCCN4CCCC4)nn3)n2)cc1 [MY-1, 6-(3-(4-methoxyphenyl)-1,2,4-oxadiazol-5-yl)-N-(3-(pyrrolidin-1-yl)propyl)pyridazin-3-amine]

SMILES: COc1ccc(-c2noc(-c3ccc(NCCCNc4c5ccc(Cl)cc5nc5ccc(OC)cc45)nn3)n2)cc1 [B33, N^1-(6-chloro-2-methoxyacridin-9-yl)-N^3-(6-(3-(4-methoxyphenyl)-1,2,4-oxadiazol-5-yl)pyridazin-3-yl)propane-1,3-diamine]
binding to dsDNA on SPR (dsDNA): did not show any binding to dsDNA
binding to dsDNA/ssDNA in microarray [1]: no binding to dsDNA/ssDNA was observed
binding to hairpin containing G4 DNAs hTERT and BCL2 in microarray [1]: didn't show fluorescence
binding pattern in G4 microarray ([1]; fluorescent compound incubated 1 h): only MYCN spots lighted up
binding to MANGO II RNA G4 by SPR (MANGO II RNA G4): weak binding

SMILES: COc1ccc(-c2noc(-c3ccc(NCCCN4CCCCCC4)nn3)n2)cc1 [MY-8, N-(3-(azepan-1-yl)propyl)-6-(3-(4-methoxyphenyl)-1,2,4-oxadiazol-5-yl)pyridazin-3-amine]
NBEB cell growth (cell confluence) (NBEB cells [2]): significant inhibition of NBEB cell growth
CC50 (NBEB cells [3]): 20.5 µM
MYCN mRNA level (MYCN mRNA): clear decreases of mRNA level
MYCNOS001 mRNA level [4, 5]: clear decreases of mRNA level
MYCNOS002 mRNA level [4, 5]: clear decreases of mRNA level
onset of MYCNOS002 decrease ([4]; NBEB cells, time course): decreased as early as 24 h
